Data reported in US5386019A, “Synthesis of inhibitors of calmodulin-mediated enzymes including KS-501, KS-502 and their enantiomers” (Yale University, priority 1992, dated 1995).

Assays:
[1] = test system: Ca++/CaM dependent Kinase II; assay: Synapsin I phosphorylation at sites 2,3 by Ca++/Calmodulin kinase (Table I A); format: biochemical; details: for Inhibitory activity against CaM-dependent kinases compared with cAMP-dependent kinase or protein kinase C: from data in Table I
protein kinase C = details: background; cited from earlier work
CaM KI = assay: Synapsin I phosphorylation at site 1 by Ca++/Calmodulin kinase (Table I A); format: biochemical
[2] = test system: Ca2+/CaM-sensitive phosphodiesterase; assay: Inhibition of Ca2+/CaM-sensitive phosphodiesterase (FIGS. 1-4); format: biochemical; details: for Inhibitory effects on CaM-mediated enzyme activity: enantiomers compared with KS-501 and KS-502
Text: FIG. 1 is a graph showing the effect of various concentrations of KS-501 on the activity of Ca^2+ /CaM-dependent phosphodiesterase.
FIG. 2 is a graph showing the effect of various concentrations of ent-KS-501 on the activity of Ca^2+ /CaM-dependent phosphodiesterase.
FIG. 3 is a graph showing the effect of various concentrations of KS-502 on the activity of Ca^2+ /CaM-dependent phosphodiesterase.
FIG. 4 is a graph showing the effect of various concentrations of ent-KS-502 on the activity of Ca^2+ /CaM-dependent phosphodiesterase.

cAMP dependent kinase = assay: Synapsin I phosphorylation by PKA, cAMP (Table I C); format: biochemical
Text: (§1) KS-501 & ent-KS-501 as Inhibitors of Ca++/Calmodulin PKC PKA
(§2) The results represent the mean of 3 experiments
Site 1 is phosphorylated by both CaM KI and cAMP dependent kinase.
reaction mix. And in the reaction of PKA, EGTA is included.

CaM-PDE = details: background, cited from earlier work; for Concentration range inhibiting CaM-dependent activities of CaM-PDE: Nakanishi et al.
PKC = assay: Synapsin I phosphorylation by PKC, Ca++/PSD (Table I B); format: biochemical
Text: as §1, §2
Therefore in the reaction of CaMK or PKC, PKA inhibitor is included in th
In vitro PKC is able to phosphorylate Synapsin I at all 3 serine sites.

[3] = Basal, compound 10 μM, basal control 0.016, mean of 3 experiments
[4] = Basal, compound 40 μM, basal control 0.016
[5] = Ca++/CaM, compound 10 μM, Ca++ CaM 3 μg control 0.125
[6] = Ca++/CaM, compound 40 μM, Ca++ CaM 3 μg control 0.125
[7] = Basal, compound 10 μM, basal control 0.022
[8] = Basal, compound 40 μM, basal control 0.022
[9] = Ca++/CaM, compound 10 μM, Ca++ CaM 3 μg control 0.049
[10] = Ca++/CaM, compound 40 μM, Ca++ CaM 3 μg control 0.049
[11] = Basal, compound 10 μM, basal control 0.007
[12] = Basal, compound 10 μM, basal control 0.028
[13] = Basal, compound 40 μM, basal control 0.007
[14] = Basal, compound 40 μM, basal control 0.028
[15] = cAMP, compound 10 μM, cAMP 1 μM control 0.008
[16] = cAMP, compound 10 μM, cAMP 1 μM control 0.041
[17] = cAMP, compound 40 μM, cAMP 1 μM control 0.008
[18] = cAMP, compound 40 μM, cAMP 1 μM control 0.041
[19] = Basal, compound 10 μM, basal control 0.016
[20] = Basal, compound 10 μM, basal control 0.018
[21] = Basal, compound 40 μM, basal control 0.018
[22] = Ca++/PSD, compound 10 μM, Ca++ PSD control 0.045
[23] = Ca++/PSD, compound 10 μM, Ca++ PSD control 0.079
[24] = Ca++/PSD, compound 40 μM, Ca++ PSD control 0.045
[25] = Ca++/PSD, compound 40 μM, Ca++ PSD control 0.079

Row | Concentration range inhibitory of CaM-sensitive Kinase II [1] | Phosphorylation of Synapsin I site 2,3 [1, 3] | Phosphorylation of Synapsin I site 2,3 [1, 4] | Phosphorylation of Synapsin I site 2,3 [1, 5] | Phosphorylation of Synapsin I site 2,3 [1, 6] | Phosphorylation of Synapsin I site 1 (CaM KI; [7]) | Phosphorylation of Synapsin I site 1 (CaM KI; [8]) | Phosphorylation of Synapsin I site 1 (CaM KI; [9]) | Phosphorylation of Synapsin I site 1 (CaM KI; [10]) | Concentration range inhibitory of Ca2+/CaM-sensitive phosphodiesterase [2] | Phosphorylation of Synapsin I site 2,3 (cAMP dependent kinase; [11]) | Phosphorylation of Synapsin I site 1 (cAMP dependent kinase; [12]) | Phosphorylation of Synapsin I site 2,3 (cAMP dependent kinase; [13]) | Phosphorylation of Synapsin I site 1 (cAMP dependent kinase; [14]) | Phosphorylation of Synapsin I site 2,3 (cAMP dependent kinase; [15]) | Phosphorylation of Synapsin I site 1 (cAMP dependent kinase; [16]) | Phosphorylation of Synapsin I site 2,3 (cAMP dependent kinase; [17]) | Phosphorylation of Synapsin I site 1 (cAMP dependent kinase; [18]) | Compound | Inhibitory activity against CaM-dependent kinases compared with cAMP-dependent kinase or protein kinase C [1] | Effect on protein kinase C (protein kinase C) | further results
1 | 10 to 40 µM | 0.017 pmole/mg protein/min | 0.015 pmole/mg protein/min | 0.087 pmole/mg protein/min | 0.012 pmole/mg protein/min | 0.025 pmole/mg protein/min | 0.017 pmole/mg protein/min | 0.054 pmole/mg protein/min | 0.011 pmole/mg protein/min | 1 to 2 µM | 0.008 pmole/mg protein/min | 0.033 pmole/mg protein/min | 0.007 pmole/mg protein/min | 0.015 pmole/mg protein/min | 0.008 pmole/mg protein/min | 0.049 pmole/mg protein/min | 0.009 pmole/mg protein/min | 0.025 pmole/mg protein/min | CCCCCCCc1cc(O)cc(OC(=O)c2c(CCCCCCC)cc(O)cc2O[C@@H]2O[C@@H]([C@H](O)CO)[C@H](O)[C@H]2O)c1 [KS-501] | more inhibitory activity against CaM-dependent kinases than against cAMP-dependent kinase or protein kinase C | no effect | Concentration range inhibiting CaM-dependent activities of CaM-PDE (CaM-PDE): 1 to 5 µM; Concentrations required to inhibit CaM-independent activities (CaM-PDE): Much higher concentrations; Phosphorylation of Synapsin I site 2,3 (PKC; [19]): 0.015 pmole/mg protein/min; Phosphorylation of Synapsin I site 1 (PKC; [20]): 0.020 pmole/mg protein/min; Phosphorylation of Synapsin I site 2,3 (PKC; [4]): 0.015 pmole/mg protein/min; Phosphorylation of Synapsin I site 1 (PKC; [21]): 0.016 pmole/mg protein/min; Phosphorylation of Synapsin I site 1 (PKC; [22]): 0.041 pmole/mg protein/min; Phosphorylation of Synapsin I site 2,3 (PKC; [23]): 0.061 pmole/mg protein/min; Phosphorylation of Synapsin I site 1 (PKC; [24]): 0.017 pmole/mg protein/min; Phosphorylation of Synapsin I site 2,3 (PKC; [25]): 0.030 pmole/mg protein/min
2 | – | – | – | – | – | – | – | – | – | approximately 10 μM | – | – | – | – | – | – | – | – | CCCCCCCc1cc(OC(=O)c2c(CCCCCCC)cc(O)cc2O[C@@H]2O[C@@H]([C@H](O)CO)[C@H](O)[C@H]2O)cc(O)c1C(=O)O [KS-502] | – | no effect | Concentration range inhibiting CaM-dependent activities of CaM-PDE (CaM-PDE): 1 to 5 µM; Concentrations required to inhibit CaM-independent activities (CaM-PDE): Much higher concentrations
3 | 10 to 40 µM | 0.018 pmole/mg protein/min | 0.018 pmole/mg protein/min | 0.076 pmole/mg protein/min | 0.021 pmole/mg protein/min | 0.023 pmole/mg protein/min | 0.019 pmole/mg protein/min | 0.043 pmole/mg protein/min | 0.012 pmole/mg protein/min | 1 to 2 µM | 0.006 pmole/mg protein/min | 0.025 pmole/mg protein/min | 0.010 pmole/mg protein/min | 0.017 pmole/mg protein/min | 0.009 pmole/mg protein/min | 0.049 pmole/mg protein/min | 0.008 pmole/mg protein/min | 0.03 pmole/mg protein/min | CCCCCCCc1cc(O)cc(OC(=O)c2c(CCCCCCC)cc(O)cc2O[C@H]2O[C@H]([C@@H](O)CO)[C@@H](O)[C@@H]2O)c1 [ent-KS-501] | more inhibitory activity against CaM-dependent kinases than against cAMP-dependent kinase or protein kinase C | – | Inhibitory effects on CaM-mediated enzyme activity [2]: possess inhibitory activity; Phosphorylation of Synapsin I site 2,3 (PKC; [19]): 0.015 pmole/mg protein/min; Phosphorylation of Synapsin I site 1 (PKC; [20]): 0.018 pmole/mg protein/min; Phosphorylation of Synapsin I site 2,3 (PKC; [4]): 0.014 pmole/mg protein/min; Phosphorylation of Synapsin I site 1 (PKC; [21]): 0.013 pmole/mg protein/min; Phosphorylation of Synapsin I site 1 (PKC; [22]): 0.047 pmole/mg protein/min; Phosphorylation of Synapsin I site 2,3 (PKC; [23]): 0.067 pmole/mg protein/min; Phosphorylation of Synapsin I site 1 (PKC; [24]): 0.01 pmole/mg protein/min; Phosphorylation of Synapsin I site 2,3 (PKC; [25]): 0.02 pmole/mg protein/min
4 | – | – | – | – | – | – | – | – | – | approximately 10 μM | – | – | – | – | – | – | – | – | CCCCCCCc1cc(OC(=O)c2c(CCCCCCC)cc(O)cc2O[C@H]2O[C@H]([C@@H](O)CO)[C@@H](O)[C@@H]2O)cc(O)c1C(=O)O [ent-KS-502] | – | – | Inhibitory effects on CaM-mediated enzyme activity [2]: possess inhibitory activity
